This note sets out measurements from US9006269B2, “Azetidine derivatives” (Vernalis (R&D) Ltd., priority 2008, dated 2015).

Each structure is given as a SMILES string.

The target of series [1] is rat FAAH protein (30-579) (Rattus norvegicus (Rat), UniProt P97612). Description: Rat FAAH inhibition assay (AAMCA fluorescence). It is filed as biochemical. Particulars: 3-hour pre-incubation with compound, 120 nM FAAH; read-out: FAAH Rat IC50 (nM) 180 minutes. An excerpt:
Rat FAAH Inhibition Assay
Active rat FAAH protein (30-579) was isolated as described in the literature. The coding sequence of amino acids 30-579 of rat FAAH were cloned into the expression vector pET28a to provide an N-terminal His-tag. Following expression, the His-tagged FAAH′ (30-579) was isolated using a method based on Patricelli et al., 1998; Biochemistry vol 37, p 15177 with a combination of chelating sepharose, heparin sepharose and size exclusion chromatography.
FAAH activity was determined by measuring the liberation of the highly fluorescent 7-amino, 4-methyl Coumarin (AMC) generated during hydrolysis of the substrate Arachidonoyl 7-Amino, 4-methyl Coumarin Amide (AAMCA) by FAAH. Inhibition of FAAH activity was determined as a percentage reduction of the fluorescence determined in the absence of compound.
The assay was carried out in black-walled, clear bottom, 384-well plates. 27.5 μl of FAAH protein (in FAAH assay buffer: 50 mM Hepes, 0.01% Triton X-100, 1 mM EDTA, 0.5 mg/ml BSA (fatty-acid-free), pH 8.2) was pre-incubated, at 120 nM, with increasing concentrations of compounds (2.5 μl in 100% DMSO) for 0, 1 or 3 hours at room temperature. 2.5 μl of DMSO was added for ‘total’ controls (100% FAAH activity) and 2.5 μl of URB-597, a known inhibitor of FAAH activity, (at a final, saturating, concentration of 10 μM) was used for ‘non-specific’ controls (0% FAAH activity). 20 μl of 7.5 μM AAMCA substrate (in FAAH assay buffer) was then added to all wells and incubated at room temperature for a further 1.5 hours. Fluorescence was determined at an excitation wavelength of 355 nm and an emission wavelength of 460 nm using a Flexstation plate reader (Molecular Devices, UK). Inhibition of FAAH activity, by the compounds, was determined as the percentage reduction in relative fluorescence units (RFU) compared to the ‘total’ controls (in the absence of compound) minus the ‘non-specific’ controls. IC50 values were determined, from 10-point dose response curves, in XL-Fit using a 4-Parameter Logistic Model (Sigmoidal Dose-Response Model).
The following Table 1 provides the 3-hour incubation results of testing the compounds of Examples 1-4 herein in the above rat FAAH inhibition assay.

The target of series [2] is human FAAH 1 (Homo sapiens (Human), UniProt O00519). As to the kind of experiment: Human FAAH 1 assay (AAMCA fluorescence). It is filed as biochemical. Particulars: 1 hour pre-incubation with compound, 10 nM FAAH; read-out: FAAH Human IC50 (nM) 60 minutes (n = 2). As for the experimental part: Part B Human FAAH 1 Assay
Human FAAH 1 activity was determined by measuring the liberation of the highly fluorescent 7-amino, 4-methyl Coumarin (AMC) generated during hydrolysis of the substrate arachidonoyl 7-amino, 4-methyl coumarin amide (AAMCA) by FAAH. Inhibition of human FAAH 1 activity was determined as a percentage reduction of the fluorescence determined in the absence of compound.
The assay was carried out in black-walled, clear bottom, 384-well plates. 27.5 μl of human FAAH 1 protein (in FAAH assay buffer: 50 mM Hepes, 0.01% Triton X-100, 1 mM EDTA, 0.5 mg/ml BSA (fatty-acid-free), pH 8.2) was pre-incubated, at 10 nM, with increasing concentrations of compounds (2.5 μl in 100% DMSO) for 1 hour at room temperature. 2.5 μl of DMSO was added for ‘total’ controls (100% FAAH activity) and 2.5 μl of URB-597, a known inhibitor of FAAH activity, (at a final, saturating, concentration of […]) was used for ‘non-specific’ controls (0 FAAH activity). 20 μl of 7.5 μM AAMCA substrate (in FAAH assay buffer) was then added to all wells and incubated at room temperature for a further 4 hours. Fluorescence was determined at an excitation wavelength of 355 nm and an emission wavelength of 460 nm using a Flexstation plate reader (Molecular Devices, UK). Inhibition of human FAAH 1 activity, by the compounds, was determined as the percentage reduction in relative fluorescence units (RFU) compared to the ‘total’ controls (in the absence of compound) minus the ‘non-specific’ controls. IC50 values were determined, from 10-point dose response curves, in XL-Fit using a 4-Parameter Logistic Model (Sigmoidal Dose-Response Model).

A short description of series [3]: Plasma concentrations after oral administration in laboratory rats. It is filed as in vivo, rat.
The target of series [4] is FAAH (Homo sapiens (Human), UniProt O00519). As to the kind of experiment: Intrinsic FAAH inhibitory potency (summary statement). Type of series: biochemical. The note with it: qualitative statement.
Series [5] relates to carrageenan-induced thermal hypersensitivity. As to the kind of experiment: Rat carrageenan induced thermal hyperalgesia model of inflammatory pain. Type of series: in vivo. Here is the method: Part C Rat Carrageenan Induced Thermal Hyperalgesia Model of Inflammatory Pain.
Male Wistar rats were assessed for thermal pain sensitivity by applying a focused light beam onto the hind paws and recording the time to paw withdrawal, before and after local intraplantar administration of carrageenan. After 3 h, thermal pain sensitivity was reassessed in treated and untreated hind paws prior to dosing with test compound or vehicle. Indomethacin was administered as a positive control.
Male Sprague Dawley rats were tail-marked, and acclimatised to the plantar boxes on 3 separate occasions (6, 5 and 1 day prior to the test day) for at least 5 min on each occasion. On the pre-test day, the rats were habituated to the test room for at least 30 min prior to testing. The rats were put into the Hargreaves plantar boxes, allowed to settle down for approx 3-5 min, and challenged with the mobile radiant heat source. The latency to withdraw both left and right hindpaws from the heat source was determined on 2 occasions (3 min apart). The mean across the 2 challenges was recorded as the baseline for each animal. Rats 18 and 30 were not used in the study as they had very high baseline readings, and they were replaced by 61 and 63. Rats were then allocated to drug treatments ensuring the baseline latencies were balanced across groups.
On the test day, rats received intraplantar carrageenan lambda (100 uL of 1% in saline), or saline in right hindpaw 3 hours before testing. Four hours before testing, rats received VER-158416 (1, 3, or 10 mg/kg) or vehicle (5% EtOH: 95% (1% methylcellulose in water) p.o. Subsequently, 30 min before testing, rats received a second injection of either indomethacin 10 mg/kg or vehicle (50% 0.1M Na2CO3: 47.5% phosphate buffered saline (PBS): 2.5% 1M HCl) i.p. At the scheduled test time following drug treatment, the latency to withdraw the paw from the radiant heat source was reassessed by a single reading.
For example, the compound of Example 13 above was tested as follows:
Rats were dosed with intraplantar carrageenan at t=0; the compound of Example 13 (1, 3 & 10 mg/kg po) or vehicle (5% EtOH: 95% (1% methylcellulose in water) at t=2 h; indomethacin (10 mg/kg ip) or vehicle at t=2.5 h and thermal sensitivity was measured at t=3 h. Thus all rats received both oral and ip dosing.

Sequence of rat FAAH protein (30-579) (P97612 30-579): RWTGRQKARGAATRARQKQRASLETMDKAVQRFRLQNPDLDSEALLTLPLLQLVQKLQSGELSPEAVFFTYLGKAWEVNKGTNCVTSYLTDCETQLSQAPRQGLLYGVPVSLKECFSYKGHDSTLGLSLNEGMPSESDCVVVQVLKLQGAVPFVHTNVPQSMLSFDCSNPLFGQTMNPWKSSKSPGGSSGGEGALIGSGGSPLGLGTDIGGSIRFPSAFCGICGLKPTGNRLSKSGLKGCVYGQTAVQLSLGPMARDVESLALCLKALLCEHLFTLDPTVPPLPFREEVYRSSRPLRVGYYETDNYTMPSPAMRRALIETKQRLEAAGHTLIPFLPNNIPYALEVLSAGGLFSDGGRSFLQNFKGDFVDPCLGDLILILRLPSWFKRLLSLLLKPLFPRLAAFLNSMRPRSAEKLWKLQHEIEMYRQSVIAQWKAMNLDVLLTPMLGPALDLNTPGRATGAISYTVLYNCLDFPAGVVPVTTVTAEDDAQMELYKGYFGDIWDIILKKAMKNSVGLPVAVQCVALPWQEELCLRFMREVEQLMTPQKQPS
Sequence of human FAAH 1 (O00519 whole entry): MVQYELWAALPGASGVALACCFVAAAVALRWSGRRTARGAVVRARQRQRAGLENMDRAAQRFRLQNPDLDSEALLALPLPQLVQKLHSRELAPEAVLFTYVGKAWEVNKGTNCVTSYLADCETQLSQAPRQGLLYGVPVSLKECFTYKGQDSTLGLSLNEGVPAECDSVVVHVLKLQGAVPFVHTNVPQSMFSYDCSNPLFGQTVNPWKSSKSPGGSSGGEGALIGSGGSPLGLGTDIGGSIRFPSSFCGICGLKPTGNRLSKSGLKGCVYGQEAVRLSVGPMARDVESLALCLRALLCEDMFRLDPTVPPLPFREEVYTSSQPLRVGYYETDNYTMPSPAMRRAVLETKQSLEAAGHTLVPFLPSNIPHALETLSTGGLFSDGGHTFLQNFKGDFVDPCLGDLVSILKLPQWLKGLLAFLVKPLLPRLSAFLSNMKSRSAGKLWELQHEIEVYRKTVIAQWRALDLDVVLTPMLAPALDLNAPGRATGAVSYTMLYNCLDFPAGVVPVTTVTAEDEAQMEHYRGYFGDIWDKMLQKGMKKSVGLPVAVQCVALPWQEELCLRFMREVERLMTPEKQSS
Sequence of FAAH (O00519 whole entry): as above

As for `O=C(Nc1ccccc1)N1CC(Oc2ccc(-c3ccccc3)cc2)C1` [Example 1, 3-(biphenyl-4-yloxy)-azetidine-1-carboxylic acid phenylamide], in series [1], the IC50 came out at 135 nM.
On the same count and under the same terms, as for `O=C(Nc1cccc(F)c1)N1CC(Oc2ccc(-c3ccccc3)cc2)C1` [Example 2, 3-(Biphenyl-4-yloxy)-azetidine-1-carboxylic acid (3-fluoro-phenyl)-amide], the figure is 279 nM; as for `O=C(Nc1ccccc1F)N1CC(Oc2ccc(-c3ccccc3)cc2)C1` [Example 3, 3-(Biphenyl-4-yloxy)-azetidine-1-carboxylic acid (2-fluoro-phenyl)-amide], 77 nM.
Regarding `COCCOc1cccc(-c2ccc(OC3CN(C(=O)Nc4ccncn4)C3)nc2)c1` [Example 5, 3-{5-[3-(2-Methoxy-ethoxy)-phenyl]-pyridin-2-yloxy}-azetidine-1-carboxylic acid pyrimidin-4-ylamide], in series [2], the IC50 was 9 nM.
`COCCOc1cccc(-c2ccc(OC3CN(C(=O)Nc4cnccn4)C3)nc2)c1` [Example 6, 3-{5-[3-(2-Methoxy-ethoxy)-phenyl]-pyridin-2-yloxy}-azetidine-1-carboxylic acid pyrazin-2-ylamide]: in series [2], the IC50 was found to be 73 nM.
For `COCCOc1cccc(-c2ccc(OC3CN(C(=O)Nc4cccnn4)C3)nc2)c1` [Example 7, 3-{5-[3-(2-Methoxy-ethoxy)-phenyl]-pyridin-2-yloxy}-azetidine-1-carboxylic acid pyridazin-3-ylamide], in series [3], the “plasma concentrations after oral administration” value (“plasma concentrations” for short) is “high and prolonged”. Besides, the intrinsic-FAAH inhibitory potency result in series [4] is “good”. Besides, the concentration for half-maximal inhibition (IC50) in series [2] was found to be 19 nM.
For `COCCOc1cccc(-c2ccc(OC3CN(C(=O)Nc4cccnc4)C3)nc2)c1` [Example 8, 3-{5-[3-(2-Methoxy-ethoxy)-phenyl]-pyridin-2-yloxy}-azetidine-1-carboxylic acid pyridin-3-ylamide], in series [2], the half-inhibitory concentration (IC50) is 18 nM.
For `O=C(Nc1cccnn1)N1CC(Oc2ccc(-c3cccc(OCCOCc4ccccc4)c3)cn2)C1` [Example 9, 3-{5-[3-(2-Benzyloxy-ethoxy)-phenyl]-pyridin-2-yloxy}-azetidine-1-carboxylic acid pyridazin-3-ylamide], the IC50 in series [2] was found to be 3 nM.
Same read-out and setting: under `O=C(Nc1cccnn1)N1CC(Oc2ccc(-c3cccc(OCCO)c3)cn2)C1` [Example 10, 3-{5-[3-(2-Hydroxy-ethoxy)-phenyl]-pyridin-2-yloxy}-azetidine-1-carboxylic acid pyridazin-3-ylamide] stands 49 nM; under `COCCOc1ccc(OC)c(-c2ccc(OC3CN(C(=O)Nc4cccnn4)C3)nc2)c1` [Example 11, 3-{5-[2-Methoxy-5-(2-methoxy-ethoxy)-phenyl]-pyridin-2-yloxy}-azetidine-1-carboxylic acid pyridazin-3-ylamide], 19 nM; under `COc1ccc(OC)c(-c2ccc(OC3CN(C(=O)Nc4cccnn4)C3)nc2)c1` [Example 12, 3-[5-(2,5-Dimethoxy-phenyl)-pyridin-2-yloxy]-azetidine-1-carboxylic acid pyridazin-3-ylamide], 12 nM.
Turning to `O=C(Nc1cccnn1)N1CC(Oc2ccc(-c3ccccc3)cn2)C1` [Example 13, 3-(5-Phenyl-pyridin-2-yloxy)-azetidine-1-carboxylic acid pyridazin-3-ylamide], the “plasma concentrations” value in series [3] was “high and prolonged”. In series [5] (1, 3, 10 mg/kg p.o., rat), the “effect on contralateral paw sensitivities to thermal pain” value is listed as “no effect”, the “inhibition of carrageenan-induced thermal hypersensitivity” value is listed as “dose-related inhibition” and the “reduction of pain sensitivity to below normal levels” value was “did not reduce pain sensitivity to below normal levels”. The “statistical significance of inhibition vs vehicle/carrageenan group” value in series [5] (at 3 and 10 mg/kg doses p.o., one way ANOVA, Newman-Keuls) is given as “reached statistical significance”. Further, the intrinsic-FAAH inhibitory potency entry in series [4] was “good”. In addition, the 50% inhibitory concentration (IC50) in series [2] is 38 nM.
With `O=C(Nc1cccnn1)N1CC(Oc2ccc(-c3c(F)cccc3F)cn2)C1` [Example 14, 3-[5-(2,6-Difluoro-phenyl)-pyridin-2-yloxy]-azetidine-1-carboxylic acid pyridazin-3-ylamide], the concentration for half-maximal inhibition (IC50) in series [2] is 14 nM.
On the same count and under the same terms, as for `COCCOc1ccc(Cl)c(-c2ccc(OC3CN(C(=O)Nc4cccnn4)C3)nc2)c1` [Example 15, 3-{5-[2-Chloro-5-(2-methoxy-ethoxy)-phenyl]-pyridin-2-yloxy}-azetidine-1-carboxylic acid pyridazin-3-yl-amide], the figure is 7 nM.
The same measure, in the same setting: as for `O=C(Nc1cnccn1)N1CC(Oc2ccc(-c3ccccc3F)cn2)C1` [Example 16, 3-[5-(2-Fluoro-phenyl]-pyridin-2-yloxy]-azetidine-1-carboxylic acid pyrazin-2-ylamide], the figure is 42 nM.
For the compound `COc1ccccc1-c1ccc(OC2CN(C(=O)Nc3cccnn3)C2)nc1` [Example 17, 3-[5-(2-Methoxy-phenyl)-pyridin-2-yloxy]-azetidine-1-carboxylic acid pyridazin-3-ylamine], in series [3], the “plasma concentrations” value was “high and prolonged”.
`O=C(Nc1cccnn1)N1CC(Oc2ccc(-c3ccccc3F)cn2)C1` [Example 18, 3-[5-(2-Fluoro-phenyl)-pyridin-2-yloxy]-azetidine-1-carboxylic acid pyridazin-3-ylamide]: the “plasma concentrations” value in series [3] was “high and prolonged”. Moreover, the intrinsic-FAAH inhibitory potency result in series [4] is listed as “good”. Further, the 50% inhibitory concentration (IC50) in series [2] was found to be 16 nM.
Turning to `COc1cccc(-c2ccc(OC3CN(C(=O)Nc4cccnn4)C3)nc2)c1F` [Example 19, 3-[5-(2-Fluoro-3-methoxy-phenyl)-pyridin-2-yloxy]-azetidine-1-carboxylic acid pyridazin-3-ylamide], in series [2], the IC50 is 26 nM.

For orientation: IC50 means the concentration needed to halve the response being measured.
